Assay results from patent publication US10450316B2, “Certain protein kinase inhibitor” (Chongqing Fochon Pharmaceutical Co., Ltd., priority 2015, dated 2019).

test system: BE(2)-C cell; experiment: Cell proliferation assay (MTS) in BE(2)-C cells; type: cell-based; conditions: Homo sapiens, inhibition of BE(2)-C cell proliferation, 48 h
Summary of the method: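 Proliferation read-out was MTS absorbance at 490 nm, with 650 nm as reference, after a 2 h MTS incubation, giving IC50 values. Before reading, BE(2)-C cells plated at 3000 per well were exposed to nine compound concentrations from 10000 down to 1.5 nM for 48 h at 37 °C, 5% CO2.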

First: CN1CC2CN(Cc3ccc(Nc4ncc(F)c(-c5cc(F)c6nc7n(c6c5)C5(CC7)CC5)n4)nc3)CC21 (stereo not shown) [Example 142, 5-fluoro-4-(5-fluoro-2,3-dihydrospiro[benzo[d]pyrrolo[1,2-a]imidazole-1,1′-cyclopropan]-7-yl)-N-(5-((6-methyl-3,6-diazabicyclo[3.2.0]heptan-3-yl)methyl)pyridin-2-yl)pyrimidin-2-amine]
Second: C[C@@H]1CCc2nc3c(F)cc(-c4nc(Nc5ccc(CN6CC7CCC(C6)N7C)cn5)ncc4F)cc3n21 [Example 105, 5-fluoro-4-((R)-5-fluoro-1-methyl-2,3-dihydro-1H-benzo[d]pyrrolo[1,2-a]imidazol-7-yl)-N-(5-((8-methyl-3,8-diazabicyclo[3.2.1]octan-3-yl)methyl)pyridin-2-yl)pyrimidin-2-amine]
The IC50 of the first is higher: over 1000 nM for the first, 10 to 100 nM for the second. The second is the more potent here.

`FC[C@@H]1CCc2nc3c(F)cc(-c4nc(Nc5ccc(CN6CCNCC6)cn5)ncc4F)cc3n21` [Example 4, (S)-5-fluoro-4-(5-fluoro-1-(fluoromethyl)-2,3-dihydro-1H-benzo[d]pyrrolo[1,2-a]imidazol-7-yl)-N-(5-(piperazin-1-ylmethyl)pyridin-2-yl)pyrimidin-2-amine] and `Fc1cnc(Nc2ccc(CN3CC4(CCNCC4)C3)cn2)nc1-c1cc(F)c2nc3n(c2c1)[C@H](C(F)F)CC3` [Example 42, (S)-N-(5-((2,7-diazaspiro[3.5]nonan-2-yl)methyl)pyridin-2-yl)-4-(1-(difluoromethyl)-5-fluoro-2,3-dihydro-1H-benzo[d]pyrrolo[1,2-a]imidazol-7-yl)-5-fluoropyrimidin-2-amine] cannot be ordered by IC50: over 100 nM for the first, over 100 nM for the second.

First: CN1CC2CCC(C1)N2Cc1ccc(Nc2cc(-c3cnc4nc5n(c4c3)C(C)(C)CC5)c(F)cn2)nc1 [Example 168, 4-(6,6-dimethyl-7,8-dihydro-6H-pyrrolo[1′,2′:1,2]imidazo[4,5-b]pyridin-3-yl)-5-fluoro-N-(5-((3-methyl-3,8-diazabicyclo[3.2.1]octan-8-yl)methyl)pyridin-2-yl)pyridin-2-amine]
Second: CCN1CC2CCC(C1)N2Cc1ccc(Nc2ncc(F)c(-c3cc(F)c4nc5n(c4c3)[C@H](C(F)F)CC5)n2)nc1 [Example 56, 4-((S)-1-(difluoromethyl)-5-fluoro-2,3-dihydro-1H-benzo[d]pyrrolo[1,2-a]imidazol-7-yl)-N-(5-((3-ethyl-3,8-diazabicyclo[3.2.1]octan-8-yl)methyl)pyridin-2-yl)-5-fluoropyrimidin-2-amine]
The IC50 of the first is higher: over 100 nM for the first, 10 to 100 nM for the second. The second is the more potent here.

Compared with `CCN1C2CCC1CN(Cc1ccc(Nc3ncc(F)c(-c4cc(F)c5nc6n(c5c4)[C@H](C(F)F)CC6)n3)nc1)C2` [Example 59, 4-((S)-1-(difluoromethyl)-5-fluoro-2,3-dihydro-1H-benzo[d]pyrrolo[1,2-a]imidazol-7-yl)-N-(5-((8-ethyl-3,8-diazabicyclo[3.2.1]octan-3-yl)methyl)pyridin-2-yl)-5-fluoropyrimidin-2-amine], `Fc1cnc(Nc2ccc(CN3CC4(CNC4)C3)cn2)nc1-c1cc(F)c2nc3n(c2c1)[C@H](C(F)F)CC3` [Example 45, (S)-N-(5-((2,6-diazaspiro[3.3]heptan-2-yl)methyl)pyridin-2-yl)-4-(1-(difluoromethyl)-5-fluoro-2,3-dihydro-1H-benzo[d]pyrrolo[1,2-a]imidazol-7-yl)-5-fluoropyrimidin-2-amine] is higher in IC50: 10 to 100 nM for the first, over 1000 nM for the second.

First: C[C@@H]1CCc2nc3c(F)cc(-c4nc(Nc5ccc(CN6CCC7(CC6)CN(C)C7)cn5)ncc4F)cc3n21 [Example 87, (R)-5-fluoro-4-(5-fluoro-1-methyl-2,3-dihydro-1H-benzo[d]pyrrolo[1,2-a]imidazol-7-yl)-N-(5-((2-methyl-2,7-diazaspiro[3.5]nonan-7-yl)methyl)pyridin-2-yl)pyrimidin-2-amine]
Second: CCN1CCC2(CC1)CCN(Cc1ccc(Nc3ncc(F)c(-c4cc(F)c5nc6n(c5c4)[C@H](C)CC6)n3)nc1)CC2 [Example 94, (R)-N-(5-((9-ethyl-3,9-diazaspiro[5.5]undecan-3-yl)methyl)pyridin-2-yl)-5-fluoro-4-(5-fluoro-1-methyl-2,3-dihydro-1H-benzo[d]pyrrolo[1,2-a]imidazol-7-yl)pyrimidin-2-amine]
The IC50 of the first is lower: 10 to 100 nM for the first, over 100 nM for the second. The first is the more potent here.
